IC50 data for 42 compounds are collected here from US20230278998A1, “Compound containing structure of a five-membered heteroaromatic ring, pharmaceutical compositions thereof and applications thereof” (280 Bio, Inc., priority 2022, published 2023).

SMILES strings stand for the structures.

In one assay the target is PARG (389-976) (Homo sapiens (Human), UniProt Q86W56). As to the kind of experiment: PARG enzyme inhibition assay (TR-FRET). In kind it is biochemical. The settings on record: Table 1, class symbol. The protocol: PARG Enzyme Inhibition Assay
PARG (389-976), sequence (Q86W56 389-976): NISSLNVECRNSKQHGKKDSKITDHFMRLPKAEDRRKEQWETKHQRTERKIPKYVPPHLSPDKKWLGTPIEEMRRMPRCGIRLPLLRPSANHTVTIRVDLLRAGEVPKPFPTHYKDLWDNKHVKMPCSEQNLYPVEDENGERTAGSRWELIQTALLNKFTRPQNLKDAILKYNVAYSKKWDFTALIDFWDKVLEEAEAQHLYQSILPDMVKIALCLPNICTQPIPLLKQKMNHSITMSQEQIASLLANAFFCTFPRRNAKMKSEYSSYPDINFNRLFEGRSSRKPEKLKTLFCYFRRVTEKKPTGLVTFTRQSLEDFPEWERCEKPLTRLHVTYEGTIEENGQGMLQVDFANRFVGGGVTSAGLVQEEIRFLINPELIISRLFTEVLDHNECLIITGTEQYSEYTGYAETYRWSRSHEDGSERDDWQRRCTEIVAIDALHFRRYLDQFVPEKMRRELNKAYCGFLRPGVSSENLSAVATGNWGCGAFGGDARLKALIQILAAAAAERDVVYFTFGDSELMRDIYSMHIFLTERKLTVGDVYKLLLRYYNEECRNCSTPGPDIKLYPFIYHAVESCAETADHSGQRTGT
PARG in vitro assays were conducted in standard 384-well plates in a total volume of 15 μL.
A general note: Time-resolved FRET reads energy transfer from a long-lived donor to a nearby acceptor.
As to `Cc1nc(C)c(Cn2nc(-c3nnc(C(F)F)s3)c3nc(S(=O)(=O)NC4(C)CC4)ccc32)s1` [Compound 11], the IC50 (in general, the concentration that inhibits the measured activity by half) lay within 100 to 1000 nM.

Compound `Cc1nc(C)c(Cn2nc(-c3nnc(C(F)F)s3)c3cc(S(=O)(=O)NC4(C)CC4)ccc32)s1` [Compound 1] yielded an IC50 below 100 nM.

As to `Cc1nc(C)c(Cn2nc(-c3nnc(C(F)F)s3)c3cc(S(=O)(=O)NC4(C)CC4)cnc32)s1` [Compound 9], the IC50 is below 100 nM.

Staying with this assay, now noted: Table 2, class symbol.
For the compound `Cn1nc(-c2nnc(C(F)F)s2)c2cc(S(=O)(=O)NC3(C#N)CC3)cc(-c3ccncn3)c21` [Compound 31], the IC50 was below 100 nM.

Compound `CC(C)C(=O)N1C2CCC1CN(c1cc(S(=O)(=O)NC3(C)CC3)cc3c(-c4nnc(C(F)F)s4)nn(C)c13)C2` [Compound 65] gave an IC50 below 100 nM.

Take `Cn1nc(-c2nnc(C(F)F)s2)c2cc(S(=O)(=O)NC3(C#N)CC3)cc(N3CCN(c4cccnn4)CC3)c21` [Compound 41]: the IC50 is below 100 nM.

Take `Cn1nc(-c2nnc(C(F)F)s2)c2cc(S(=O)(=O)NC3(C#N)CC3)cc(N3CCN(C(=O)C4CC4)CC3)c21` [Compound 24]: the IC50 is below 100 nM.

For the compound `CC(C)C(=O)N1CCN(c2cc(S(=O)(=O)NC3(C)CC3)cc3c(-c4nnc(C(F)F)s4)nn(CC(F)(F)F)c23)CC1` [Compound 23], the IC50 was below 100 nM.

`CC(=O)N1CCN(c2cc(S(=O)(=O)NC3(C#N)CC3)cc3c(-c4nnc(C(F)F)s4)nn(C)c23)CC1` [Compound 32] registered an IC50 below 100 nM.

On to `Cn1nc(-c2nnc(C(F)F)s2)c2cc(S(=O)(=O)NC3(C#N)CC3)cc(N3CCC(N=[N+]=[N-])CC3)c21` [Compound 60], for which the IC50 was below 100 nM.

In turn, `Cc1nc(C)c(Cn2nc(-c3nnc(C(F)F)s3)c3cc(S(=O)(=O)NC4(C)CC4)c(F)cc32)s1` [Compound 13] showed an IC50 below 100 nM.

In turn, `CC(C)C(=O)N1CC=C(c2cc(S(=O)(=O)NC3(C#N)CC3)cc3c(-c4nnc(C(F)F)s4)nn(C)c23)CC1` [Compound 40] had an IC50 below 100 nM.

For `N#CC1(NS(=O)(=O)c2ccc3c(c2)c(-c2nnc(C(F)F)s2)nn3Cc2ccc(F)cc2)CC1` [Compound 57], the IC50 is below 100 nM.

The compound `Cn1nc(-c2nnc(C(F)F)s2)c2cc(S(=O)(=O)NC3(C#N)CC3)cc(N3CCN(C(=O)c4ccccc4)CC3)c21` [Compound 36] gave an IC50 below 100 nM.

In the case of `CC(C)C(=O)N1CCN(c2cc(S(=O)(=O)NC3(C#N)CC3)cc3c(-c4nnc(C(F)F)s4)nn(CC(F)(F)F)c23)CC1` [Compound 30], the IC50 was below 100 nM.

Consider `Cn1nc(-c2nnc(C(F)F)s2)c2cc(S(=O)(=O)NC3(C#N)CC3)cc(N3CCN(C(=O)c4ccccn4)CC3)c21` [Compound 43], for which the IC50 was below 100 nM.

Turning to `CCC(=O)N1CCN(c2cc(S(=O)(=O)NC3(C#N)CC3)cc3c(-c4nnc(C(F)F)s4)nn(C)c23)CC1` [Compound 45], the IC50 is below 100 nM.

Compound `CCn1nc(-c2nnc(C(F)F)s2)c2cc(S(=O)(=O)NC3(C#N)CC3)cc(N3CCN(C(=O)C(C)C)CC3)c21` [Compound 26] yielded an IC50 below 100 nM.

Take `Cn1nc(-c2nnc(C(F)F)s2)c2cc(S(=O)(=O)NC3(C#N)CC3)cc(N3CCN(C(=O)C4(C)CC4)CC3)c21` [Compound 38]: the IC50 is below 100 nM.

Take `C[C@@H]1CN(c2cc(S(=O)(=O)NC3(C#N)CC3)cc3c(-c4nnc(C(F)F)s4)nn(C)c23)CCO1` [Compound 37]: the IC50 was below 100 nM.

As to `Cn1nc(-c2nnc(C(F)F)s2)c2cc(S(=O)(=O)NC3(C#N)CC3)cc(N3CCN(c4ccccc4)CC3)c21` [Compound 53], the concentration for half-maximal inhibition (IC50) is below 100 nM.

Turning to `Cn1nc(-c2nnc(C(F)F)s2)c2cc(S(=O)(=O)NC3(C#N)CC3)cc(N3CCN(C(=O)CC(F)(F)F)CC3)c21` [Compound 52], the IC50 is below 100 nM.

The compound `Cn1nc(-c2nnc(C(F)F)s2)c2cc(S(=O)(=O)NC3(C#N)CC3)cc(N3CCOCC3)c21` [Compound 29] gave an IC50 below 100 nM.

The assay is the same for the next values; noted with them: Table 3, class symbol.
In turn, `COc1ccc(CN(C2(C#N)CC2)S(=O)(=O)c2cc(N3CC4CCC(C3)N4C(=O)C(C)C)c3c(c2)c(-c2nnc(C(F)F)s2)nn3CCO)cc1` [Compound 96] displayed an IC50 of 100 to 1000 nM.

`CC(C)S(=O)(=O)N1CC=C(c2cc(S(=O)(=O)NC3(C#N)CC3)cc3c(-c4nnc(C(F)F)s4)nn(C)c23)CC1` [Compound 141] yielded an IC50 below 100 nM.

Turning to `Cn1nc(-c2nnc(C(F)F)s2)c2cc(S(=O)(=O)NC3(C#N)CC3)cc(C3CCC(C(=O)N4CCCC4)CC3)c21` (stereo not drawn) [Compound 140], the IC50 is below 100 nM.

Compound `Cn1nc(-c2nnc(C(F)F)s2)c2cc(S(=O)(=O)NC3(C#N)CC3)cc(N3CC4CCC(C3)N4C(=O)C3CCCC3)c21` [Compound 75] returned an IC50 below 100 nM.

`CC(C)C(=O)N1CCN(c2cc(S(=O)(=O)NC3(C#N)CC3)cc3c(-c4nnc(C(F)F)s4)nn(CC(F)(F)F)c23)C[C@H]1C` [Compound 109] displayed an IC50 below 100 nM.

For the compound `CC(C)C(=O)N1C2C=C(c3cc(S(=O)(=O)NC4(C#N)CC4)cc4c(-c5nnc(C(F)F)s5)nn(C)c34)CC1COC2` (stereo not drawn) [Compound 85], the IC50 is below 100 nM.

The compound `CC(C)C(=O)N1CC2CCC(C1)N2c1cc(S(=O)(=O)NC2(C#N)CC2)cc2c(-c3nnc(C(F)F)s3)nn(C)c12` [Compound 101] yielded an IC50 below 100 nM.

The compound `CC(C)C(=O)N1CCN(c2cc(S(=O)(=O)NC(C)(C)C)cc3c(-c4nnc(C(F)F)s4)nn(C)c23)CC1` [Compound 131] gave an IC50 below 100 nM.

Regarding `C[C@H](N)C(=O)N1CC=C(c2cc(S(=O)(=O)NC3(C#N)CC3)cc3c(-c4nnc(C(F)F)s4)nn(C)c23)CC1` [Compound 81], the IC50 was below 100 nM.

Compound `CN1CCC(C(=O)N2C3CCC2CN(c2cc(S(=O)(=O)NC4(C#N)CC4)cc4c(-c5nnc(C(F)F)s5)nn(C)c24)C3)C1` (stereo not drawn) [Compound 74] had an IC50 below 100 nM.

The compound `Cn1nc(-c2nnc(C(F)F)s2)c2cc(S(=O)(=O)NC3(C#N)CC3)cc(N3CCN(C(=O)C4(C)CCC4)CC3)c21` [Compound 143] gave an IC50 below 100 nM.

As for `CC(C)(O)C1CCN(c2cc(S(=O)(=O)NC3(C#N)CC3)cc3c(-c4nnc(C(F)F)s4)nn(CC(F)(F)F)c23)CC1` [Compound 105], the IC50 is below 100 nM.

With `C[C@H](N)C(=O)N1C2CCC1CN(c1cc(S(=O)(=O)NC3(C#N)CC3)cc3c(-c4nnc(C(F)F)s4)nn(C)c13)C2` [Compound 73], the IC50 is below 100 nM.

As to `CCn1nc(-c2nnc(C(F)F)s2)c2cc(S(=O)(=O)NC3(C#N)CC3)cc(N3CCN(C(=O)C(C)C)[C@H](C)C3)c21` [Compound 103], the 50% inhibitory concentration (IC50) was below 100 nM.

In turn, `CC(C)CC(=O)N1CCN(c2cc(S(=O)(=O)NC3(C#N)CC3)cc3c(-c4nnc(C(F)F)s4)nn(C)c23)CC1` [Compound 146] gave an IC50 below 100 nM.

For `Cn1nc(-c2nnc(C(F)F)s2)c2cc(S(=O)(=O)NC3(C#N)CC3)cc(N3CCC(N4CCCC4)CC3)c21` [Compound 134], the IC50 is below 100 nM.

On to `CC(C)C(=O)N1C2CCC1CN(c1cc(S(=O)(=O)NC3(C#N)CC3)cc3c(-c4nnc(C(F)F)s4)nn(CC#N)c13)C2` [Compound 122], for which the IC50 is below 100 nM.

For `N#CC1(NS(=O)(=O)c2cc(N3CC4(CCOCC4)C3)c3c(c2)c(-c2nnc(C(F)F)s2)nn3CC(F)(F)F)CC1` [Compound 133], the IC50 is below 100 nM.

In the case of `C[C@@H]1CN(c2cc(S(=O)(=O)NC3(C#N)CC3)cc3c(-c4nnc(C(F)F)s4)nn(C)c23)CCN1C(=O)N(C)C` [Compound 70], the IC50 was below 100 nM.
